Assay results: ChEMBL document CHEMBL1201862, “PubChem BioAssay data set” (2004)
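Values below derive from 48-hour exposures of cells grown in 96-well plates, with endpoints linearly interpolated between the two concentrations bracketing the appropriate inhibition level. At the GI50, growth is halved.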 Calls of active or inactive are those of the source. No stated cut-off is given here; in the data, active = GI50 up to about 1.1 µM and inactive = higher.

Experiments:
Test in all cases: DTP human tumour cell line panel, 48 h
SK-MEL-5 = system: SK-MEL-5
SN12C = system: SN12C
LOX IMVI = system: LOX IMVI
SK-MEL-28 = system: SK-MEL-28
DU-145 = system: DU-145
HOP-92 = system: HOP-92
OVCAR-5 = system: OVCAR-5
Malme-3M = system: Malme-3M
HL-60 = system: HL-60
SNB-75 = system: SNB-75
786-0 = system: 786-0
SF-268 = system: SF-268
CAKI-1 = system: CAKI-1
COLO 205 = system: COLO 205
NCI-H522 = system: NCI-H522
HCC 2998 = system: HCC 2998
HT-29 = system: HT-29
T47D = system: T47D
A498 = system: A498
KM-20L2 = system: KM-20L2

| SMILES | GI50 (SK-MEL-5) | GI50 (SN12C) | GI50 (LOX IMVI) | GI50 (SK-MEL-28) | GI50 (DU-145) | GI50 (HOP-92) | GI50 (OVCAR-5) | GI50 (Malme-3M) | GI50 (HL-60) | GI50 (SNB-75) | GI50 (786-0) | GI50 (SF-268) | GI50 (CAKI-1) | GI50 (COLO 205) | GI50 (NCI-H522) | GI50 (HCC 2998) | GI50 (HT-29) | GI50 (T47D) | GI50 (A498) | GI50 (KM-20L2) |
| --- | --- | --- | --- | --- | --- | --- | --- | --- | --- | --- | --- | --- | --- | --- | --- | --- | --- | --- | --- | --- |
| N#Cc1nc(NC(=O)c2ccccc2)sc1N | > 10 µM (inactive) | > 10 µM (inactive) | > 10 µM (inactive) | > 10 µM (inactive) | > 10 µM (inactive) | > 10 µM (inactive) | > 10 µM (inactive) | > 10 µM (inactive) | 3 µM (inactive) | > 10 µM (inactive) | > 10 µM (inactive) | > 10 µM (inactive) | > 10 µM (inactive) | > 10 µM (inactive) | > 10 µM (inactive) | > 10 µM (inactive) | > 10 µM (inactive) | > 4.03 µM (inactive) | > 10 µM (inactive) | – |
| CC(=O)c1c2c(c3ccccc3c1O)O[C@@H]1OCC[C@H]21 | > 100 µM (inactive) | > 100 µM (inactive) | > 100 µM (inactive) | > 100 µM (inactive) | > 100 µM (inactive) | > 100 µM (inactive) | > 100 µM (inactive) | > 100 µM (inactive) | > 100 µM (inactive) | 11.5 µM (inactive) | > 100 µM (inactive) | > 100 µM (inactive) | > 100 µM (inactive) | > 100 µM (inactive) | > 100 µM (inactive) | > 100 µM (inactive) | > 100 µM (inactive) | > 100 µM (inactive) | > 100 µM (inactive) | – |
| CCn1c2ccccc2c2cc(NC(=O)c3c(C)nc(O)nc3NCCNCCO)ccc21 | > 100 µM (inactive) | > 100 µM (inactive) | > 100 µM (inactive) | > 100 µM (inactive) | > 100 µM (inactive) | > 100 µM (inactive) | > 100 µM (inactive) | > 100 µM (inactive) | 1.58 µM (inactive) | > 100 µM (inactive) | > 100 µM (inactive) | > 100 µM (inactive) | > 100 µM (inactive) | > 100 µM (inactive) | > 100 µM (inactive) | > 100 µM (inactive) | > 100 µM (inactive) | > 100 µM (inactive) | > 100 µM (inactive) | – |
| CCOC(=O)c1cc(-c2ccc(OC)c(OC)c2)c[nH]1 | > 10 µM (inactive) | > 10 µM (inactive) | > 10 µM (inactive) | > 10 µM (inactive) | > 10 µM (inactive) | > 10 µM (inactive) | > 10 µM (inactive) | > 10 µM (inactive) | > 10 µM (inactive) | 5.08 µM (inactive) | > 10 µM (inactive) | > 10 µM (inactive) | > 10 µM (inactive) | > 10 µM (inactive) | > 10 µM (inactive) | > 10 µM (inactive) | > 10 µM (inactive) | > 10 µM (inactive) | > 10 µM (inactive) | – |
| COC(=O)C(CCC#N)(CCC#N)C(=O)OC | > 100 µM (inactive) | > 100 µM (inactive) | > 100 µM (inactive) | > 100 µM (inactive) | – | – | – | > 100 µM (inactive) | > 100 µM (inactive) | – | > 100 µM (inactive) | > 100 µM (inactive) | – | > 100 µM (inactive) | > 100 µM (inactive) | > 100 µM (inactive) | > 100 µM (inactive) | – | – | > 100 µM (inactive) |
| Cc1cc(C(C)(C)C)c(OCCCN2CCOCC2)c(C(C)(C)C)c1 | 15.9 µM (inactive) | 17.8 µM (inactive) | 20.6 µM (inactive) | 16.4 µM (inactive) | 17.1 µM (inactive) | 20.4 µM (inactive) | 17.9 µM (inactive) | 20.1 µM (inactive) | 14.1 µM (inactive) | 16.7 µM (inactive) | 17.3 µM (inactive) | 18.7 µM (inactive) | 19.1 µM (inactive) | 15.7 µM (inactive) | 17.9 µM (inactive) | 16.7 µM (inactive) | 16.3 µM (inactive) | 15.1 µM (inactive) | 18.9 µM (inactive) | – |
| O=C(OC(/C=C/c1ccccc1)P1(=O)N(Cc2ccccc2)[C@@H]2CCCC[C@H]2N1Cc1ccccc1)c1ccccc1 (stereo not given in full) | 3.14 µM (inactive) | 3.03 µM (inactive) | 3.57 µM (inactive) | 9.82 µM (inactive) | 6.75 µM (inactive) | 2.08 µM (inactive) | 4.43 µM (inactive) | 3.54 µM (inactive) | 2.79 µM (inactive) | 3.18 µM (inactive) | 4.38 µM (inactive) | 6.37 µM (inactive) | 3.56 µM (inactive) | 2.04 µM (inactive) | 3.17 µM (inactive) | 4.9 µM (inactive) | 3.4 µM (inactive) | 4.43 µM (inactive) | 5.73 µM (inactive) | – |
| CC(=O)OCCc1cc2ccccc2oc1=O | > 100 µM (inactive) | > 100 µM (inactive) | > 100 µM (inactive) | > 100 µM (inactive) | > 100 µM (inactive) | > 100 µM (inactive) | > 100 µM (inactive) | > 100 µM (inactive) | > 100 µM (inactive) | > 100 µM (inactive) | > 100 µM (inactive) | > 100 µM (inactive) | > 100 µM (inactive) | > 100 µM (inactive) | > 100 µM (inactive) | > 100 µM (inactive) | > 100 µM (inactive) | > 100 µM (inactive) | > 100 µM (inactive) | – |
| CCOC(=O)/C(C#N)=C/c1ccc2c(c1)CC1(C2)Cc2cc(CC)c(C(C)O)cc2C1 (stereo not given) | 4.78 µM (inactive) | 14.2 µM (inactive) | 6.95 µM (inactive) | 12.8 µM (inactive) | 19.2 µM (inactive) | 16.5 µM (inactive) | 33 µM (inactive) | 6.11 µM (inactive) | 3.03 µM (inactive) | 8.38 µM (inactive) | 17.3 µM (inactive) | 13 µM (inactive) | 57.9 µM (inactive) | 25.2 µM (inactive) | 47 µM (inactive) | 16.3 µM (inactive) | 19.1 µM (inactive) | 27.9 µM (inactive) | 25.8 µM (inactive) | – |
| CC1OC(OC2C(O[C@H]3CC[C@@]4(C)C(=CC[C@H]5[C@@H]6C[C@@H]7O[C@]8(CC[C@@H](C)CO8)[C@@H](C)[C@@H]7[C@@]6(C)CC[C@@H]54)C3)OC(CO)C(O)C2O)C(O)C(O)C1O (stereo not given in full) | 3.97 µM (inactive) | 1.1 µM (active) | 0.805 µM (active) | 5.31 µM (inactive) | 1.26 µM (inactive) | 2.95 µM (inactive) | 2.93 µM (inactive) | 3.15 µM (inactive) | 0.74 µM (active) | 1.24 µM (inactive) | 1.14 µM (inactive) | 2.44 µM (inactive) | 1.7 µM (inactive) | 2.95 µM (inactive) | 1.28 µM (inactive) | 1.11 µM (active) | 0.962 µM (active) | 3.76 µM (inactive) | 1.51 µM (inactive) | – |
| O=C1C=CC(=O)c2c1ccc1c3ccccc3n(CCCCCCCCCCCCn3c4ccccc4c4ccc5c(c43)C(=O)C=CC5=O)c21 | > 100 µM (inactive) | > 100 µM (inactive) | > 100 µM (inactive) | > 100 µM (inactive) | > 100 µM (inactive) | > 100 µM (inactive) | > 100 µM (inactive) | > 100 µM (inactive) | 46.7 µM (inactive) | > 100 µM (inactive) | > 65.8 µM (inactive) | > 100 µM (inactive) | > 100 µM (inactive) | > 100 µM (inactive) | > 83.6 µM (inactive) | > 46.5 µM (inactive) | > 100 µM (inactive) | > 100 µM (inactive) | > 100 µM (inactive) | – |
| CCCCC1Cc2cc(O)ccc2-c2n1c1cc(O)ccc1[n+]2C.CCCCC1Cc2cc(O)ccc2-c2n1c1ccc(O)cc1[n+]2C (stereo not given) | 4.05 µM (inactive) | 5.58 µM (inactive) | 39 µM (inactive) | 6.64 µM (inactive) | 78.7 µM (inactive) | 9.55 µM (inactive) | 63.5 µM (inactive) | 19.5 µM (inactive) | 26.1 µM (inactive) | 12.7 µM (inactive) | 26.5 µM (inactive) | 4.57 µM (inactive) | > 100 µM (inactive) | 18.3 µM (inactive) | 2.99 µM (inactive) | 28.2 µM (inactive) | 41.7 µM (inactive) | 22.3 µM (inactive) | 31.9 µM (inactive) | – |
| COc1cc2ccc1OCc1cccc(n1)COc1ccc(cc1OC)/C=N\CCNCC/N=C\2 | > 100 µM (inactive) | > 100 µM (inactive) | > 100 µM (inactive) | > 100 µM (inactive) | > 100 µM (inactive) | 48.4 µM (inactive) | > 100 µM (inactive) | > 100 µM (inactive) | > 100 µM (inactive) | 30.5 µM (inactive) | > 100 µM (inactive) | 80.9 µM (inactive) | > 100 µM (inactive) | > 100 µM (inactive) | 34.4 µM (inactive) | > 100 µM (inactive) | > 100 µM (inactive) | 65.8 µM (inactive) | > 100 µM (inactive) | – |
| CC(=O)OC1(C(C)=O)CC2(c3ccccc3)OC1(c1ccccc1)c1ccccc12 (stereo not given) | 3.37 µM (inactive) | 35.6 µM (inactive) | 16.4 µM (inactive) | 31.6 µM (inactive) | – | 17.7 µM (inactive) | > 100 µM (inactive) | 18.6 µM (inactive) | – | 59.6 µM (inactive) | 31 µM (inactive) | 52.5 µM (inactive) | – | 7.67 µM (inactive) | 4.26 µM (inactive) | 16.8 µM (inactive) | 30.1 µM (inactive) | – | – | 8.59 µM (inactive) |
| FC(F)(F)c1ccc(C2ON=C(c3ccccc3)N2C23CC4CC(CC(C4)C2)C3)cc1 (stereo not given) | > 10 µM (inactive) | > 10 µM (inactive) | > 10 µM (inactive) | > 10 µM (inactive) | > 10 µM (inactive) | > 10 µM (inactive) | > 10 µM (inactive) | > 10 µM (inactive) | > 10 µM (inactive) | > 10 µM (inactive) | > 10 µM (inactive) | > 10 µM (inactive) | > 10 µM (inactive) | > 10 µM (inactive) | > 10 µM (inactive) | > 10 µM (inactive) | > 10 µM (inactive) | > 10 µM (inactive) | > 10 µM (inactive) | – |
